Measurements published in ChEMBL document CHEMBL1125622 (J Med Chem, 1991).

T1: Dopamine beta-hydroxylase (Bos taurus) (UniProt P15101)
T1 sequence (whole entry): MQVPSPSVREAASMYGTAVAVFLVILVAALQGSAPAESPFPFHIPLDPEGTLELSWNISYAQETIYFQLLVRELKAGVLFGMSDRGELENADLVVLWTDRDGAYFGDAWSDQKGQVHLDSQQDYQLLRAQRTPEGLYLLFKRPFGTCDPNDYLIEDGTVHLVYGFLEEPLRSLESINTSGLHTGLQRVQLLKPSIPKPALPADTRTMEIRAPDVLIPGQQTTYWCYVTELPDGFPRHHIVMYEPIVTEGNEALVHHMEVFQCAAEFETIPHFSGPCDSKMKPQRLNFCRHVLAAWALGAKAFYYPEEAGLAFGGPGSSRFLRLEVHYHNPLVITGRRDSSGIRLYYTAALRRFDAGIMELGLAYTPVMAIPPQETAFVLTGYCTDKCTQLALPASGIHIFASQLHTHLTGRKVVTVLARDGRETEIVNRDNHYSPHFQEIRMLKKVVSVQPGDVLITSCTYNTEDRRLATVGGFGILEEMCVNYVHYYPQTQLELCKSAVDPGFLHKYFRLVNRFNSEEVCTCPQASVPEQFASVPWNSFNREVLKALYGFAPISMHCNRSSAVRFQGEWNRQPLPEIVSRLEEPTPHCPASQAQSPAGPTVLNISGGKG


Columns and labels:
[1] = biological target: T1, Dopamine beta-hydroxylase (Bos taurus); assay: Kinetic parameter kcat was measured for dopamine beta-monooxygenase
[2] = biological target: T1, Dopamine beta-hydroxylase (Bos taurus); assay: Kcat/Km value of the compound; set-up: unit not given here
Rattus norvegicus = organism: Rattus norvegicus; assay: The ability to inhibit dopamine uptake was measured in rat brain striatal synaptosomes; format: functional
[3] = substrate: C[C@H](N)CSc1ccccc1; assay: (§1) Kinetic parameter Km was measured for dopamine beta-monooxygenase
[4] = substrate: C[C@@H](N)CSc1ccccc1; assay: as §1

Row | Molecule | k cat [1] [s⁻¹] | Ratio [2] | IC50 (Rattus norvegicus) [µM] | Km [3] [mM] | Km [4] [mM]
1 | NCCCc1ccccc1 | 17 | 800 |  |  | 
2 | NCCc1ccc(O)cc1 | 121 | 60000 |  |  | 
3 | C[C@@H](N)CSc1ccccc1 | 13 | 700 |  |  | 
4 | C[C@H](N)CSc1ccccc1 | 37 | 4800 | 6.5 |  | 
5 | Dopamine beta-hydroxylase (Bos taurus), P15101 (protein) MQVPSPSVREAASMYGTAVAVFLVILVAALQGSAPAESPFPFHIPLDPEGTLELSWNISYAQETIYFQLLVRELKAGVLFGMSDRGELENADLVVLWTDRDGAYFGDAWSDQKGQVHLDSQQDYQLLRAQRTPEGLYLLFKRPFGTCDPNDYLIEDGTVHLVYGFLEEPLRSLESINTSGLHTGLQRVQLLKPSIPKPALPADTRTMEIRAPDVLIPGQQTTYWCYVTELPDGFPRHHIVMYEPIVTEGNEALVHHMEVFQCAAEFETIPHFSGPCDSKMKPQRLNFCRHVLAAWALGAKAFYYPEEAGLAFGGPGSSRFLRLEVHYHNPLVITGRRDSSGIRLYYTAALRRFDAGIMELGLAYTPVMAIPPQETAFVLTGYCTDKCTQLALPASGIHIFASQLHTHLTGRKVVTVLARDGRETEIVNRDNHYSPHFQEIRMLKKVVSVQPGDVLITSCTYNTEDRRLATVGGFGILEEMCVNYVHYYPQTQLELCKSAVDPGFLHKYFRLVNRFNSEEVCTCPQASVPEQFASVPWNSFNREVLKALYGFAPISMHCNRSSAVRFQGEWNRQPLPEIVSRLEEPTPHCPASQAQSPAGPTVLNISGGKG |  |  |  | 7.7 | 19
